According to publication PMC12795676, “Integrin α5β1 mediates the inhibitory effects of vasoinhibin on angiogenesis and vascular permeability [drawing 1]” (The Journal of Biological Chemistry, 2025):
pEC50, pIC50, pKd: −log10 of the molar value. Entries after “also recorded” stand apart in the source; their conditions may differ. Residues, ends and D or L forms follow the SMILES beside them. No end group written: not given here. *: point of attachment. Biotin = O=C1N[C@H]2[C@H](CS[C@H]2CCCCC(=O)*)N1

Columns and labels:
[1] = test system: uPAR; test: Pull-down and Western blot, uPAR; type: binding, human (HUVEC lysates); conditions: HUVEC lysates; 500 nM B-Vi45-51, 1 h; Western blot
Method: (§1) To test whether Vi’s HGR motif binds integrin α5β1, human umbilical vein endothelial cells (HUVECs) were treated with a biotinylated peptide comprising residues 45 to 51 (B-Vi45-51) and subjected to pull-down and Western blot.
(§2) HUVECs treated with 500 nM B-Vi45-51, 20 ng mL^−1 bFGF, and 25 ng mL^−1 VEGF for 1 h were lysated in radioimmunoprecipitation assay, sonicated, incubated 30 min at 37 °C, and pulled down with Dynabeads Streptavidin T1 (Thermo). Eluates were analyzed by a Western blot for integrin α5, PAI-1, and uPAR.

[2] = molecular target: PAI-1-uPA complex (Homo sapiens, UniProt P00749+P05121); test: ELISA, binding to immobilized PAI-1-uPA complex; conditions: for Binding to immobilized PAI-1-uPA complex: plates coated with 2 μg mL^−1
Method: (§3) Plates coated with 2 μg mL^−1 integrin α5β1, PAI-1, or PAI-1-uPA complex (37 °C, 10 min) were incubated with B-Vi45-51, Vi, or 100 nM ViH46A, ViR48A, or ViH46A/R48A. Competition used excess Src, alanine mutants, or THGR peptides. Detection used horseradish peroxidase antibodies and 3,3′,5,5′-tetramethylbenzidine.

[3] = test system: PAI-1; test: Pull-down and Western blot, PAI-1; type: binding, human (HUVEC lysates); conditions: HUVEC lysates; 500 nM B-Vi45-51, 1 h; Western blot
Method: as §1, §2

[4] = test system: integrin α5; test: Pull-down and Western blot, integrin α5; type: binding, human (HUVEC lysates)
Method: as §1, §2

[5] = molecular target: T1, integrin α5β1 (Homo sapiens, UniProt P05556+P08648); test: ELISA, binding to immobilized integrin α5β1; conditions: dose-dependent, plates coated with 2 μg mL^−1
T1 construct: purchased Bio-Techne
Method: (§4) Vi ([49]) and its mutants were produced as reported ([14]). HUVECs were cultured as reported ([14], [50]).
as §3

[6] = test system: HUVEC adhesion to fibronectin; test: HUVEC adhesion to fibronectin; type: cell-based, human; conditions: 1 h
Method: HUVECs (43,000 cells cm^−2) were added and incubated at 37 °C for 1 h. Cells were washed twice and quantified by 3-(4,5-dimethylthiazol-2-yl)-2,5-diphenyltetrazolium bromide.

[7] = test system: endothelial cells; conditions: cited from earlier work
[8] = test system: endothelial cells; conditions: cited from earlier work; remark: listed apart in the source
[9] = molecular target: T1, integrin α5β1; test: Competitive ELISA, B-Vi45-51 binding to immobilized integrin α5β1; conditions: excess competitor
Method: as §4, §3

[10] = molecular target: T2, PAI-1 (Homo sapiens, UniProt P05121); conditions: cited from earlier work
Source text: We recently identified two distinct functional motifs in the Vi molecule: the HGR and the HNLSSEM motifs. […] These discrep ...

[11] = molecular target: T1, integrin α5β1; test: Competitive ELISA, Vi binding to integrin α5β1; conditions: excess competitor
Method: as §4, §3

[12] = test system: HUVECs; test: Endothelial cell proliferation (EdU); type: cell-based, human; conditions: 24 h; for Effect of ITGA5 knockdown on inhibition of endothelial proliferation: 100 nM Vi or Vi45-51, bFGF + VEGF, shITGA5 HUVEC vs WT; for Effect of anti-α5β1 antibody on inhibition of VEGF + bFGF-induced proliferation: 100 nM Vi or Vi45-51, 20 μg mL^−1 anti-α5β1
Method: As reported ([14]), HUVECs were serum-starved for 8 h and treated with 100 nM Vi45-51 or Vi, bFGF + VEGF, and 20 μg mL^−1 anti-α5β1 antibody in 20% fetal bovine serum for 24 h. EdU incorporation was detected with Azide Fluor 545 (Sigma).

[13] = test system: HUVECs; test: Matrigel invasion; type: cell-based, human; conditions: 100 nM Vi or Vi45-51, 16 h; shITGA5 HUVEC vs WT
Method: As reported ([14]), HUVECs on Matrigel-coated Transwells were treated with 100 nM of Vi45-51 or Vi. After 16 h, invading cells were counted.

[14] = test system: Matrigel plug vascularization (Pecam1); test: Matrigel plug assay; type: in vivo, male C57BL/6 mice; conditions: mice, s.c. plugs, 100 nM Vi or Vi45-51, bFGF + VEGF, 20 μg mL^−1 anti-α5β1; 7 days; Pecam1 mRNA
Method: As previously described ([14], [53], [54]), 6-week-old male C57BL/6 mice were subcutaneously injected with two 0.5 ml plugs supplemented with 300 ng mL^−1 bFGF and 100 ng mL^−1 VEGF, 100 nM Vi or Vi45-51, and 20 μg mL^−1 anti-integrin α5β1 antibody. After 7 days, plugs were collected, and Pecam1, relative to GAPDH, was quantified by quantitative PCR as reported ([14]). Procedures followed institutional ethical approval (Bioethics Committee, Instituto de Neurobiología, UNAM) and were in accordance with the Guide for the Care and Use of Laboratory Animals (http://www.ncbi.nlm.nih.gov/books/NBK54050/).

[15] = test system: HUVEC monolayers; test: Endothelial permeability (TEER); type: cell-based, human; conditions: 100 nM Vi or Vi45-51 for 1 h, then 50 ng mL^−1 VEGF; TEER 120 min; n = 6
Method: HUVECs were grown to confluency on 0.4 μm pore Transwells, treated with 100 nM Vi45-51 or Vi for 1 h, then stimulated with 50 ng mL^−1 VEGF. Transendothelial electrical resistance was recorded for 120 min using the EVOM2 meter (World Precision Instruments).

[16] = test system: HUVECs; test: Tube formation on Matrigel; type: cell-based, human; conditions: 100 nM Vi or Vi45-51, 6 h; shITGA5 HUVEC vs WT
Method: HUVEC tubular network formation was evaluated as reported ([14], [51]). HUVECs were seeded on Matrigel and treated with 100 nM Vi or Vi45-51 for 6 h. Micrographs were analyzed by Angiogenesis Analyzer ([52]).

[17] = test system: HUVECs; test: Apoptosis (Cell Death Detection ELISA); type: cell-based, human; conditions: 100 nM Vi, 24 h; shITGA5 HUVEC vs WT
Method: As reported ([13]), HUVEC were treated with 100 nM Vi or Vi45-51 for 24 h, and apoptosis was analyzed using the Cell Death Detection ELISA kit (Roche).

[18] = test system: PAI-1 knockout mice; conditions: cited from earlier work
Source text: The HGR motif is the sole antiangiogenic determinant of Vi, as its mutation leads to the loss of Vi’s antiangiogenic function ([14]). Given that Vi binds to integrin α5β1 via its HGR motif and that knockdown of ITGA5 abolishes the effects of Vi on endothelial cell proliferation, invasion, vascular permeability, and tube formation in vitro, while an antibody against integrin α5β1 suppresses the antiangiogenic effect of Vi in the in vivo Matrigel plug assay, integrin α5β1 emerges as the binding partner mediating the antiangiogenic activity of Vi. Integrin α5β1 is critical for angiogenesis ([16]) ...

[19] = molecular target: T2, PAI-1; test: ELISA, binding to immobilized PAI-1
Method: as §3

CC[C@H](C)[C@H](NC(=O)[C@H](Cc1ccccc1)NC(=O)CNC(=O)[C@H](CCCNC(=N)N)NC(=O)CNC(=O)[C@H](Cc1c[nH]cn1)NC(=O)[C@@H](NC(=O)CCCC[C@@H]1SC[C@@H]2NC(=O)N[C@@H]21)[C@@H](C)O)C(=O)O [B-Vi45-51] (Biotin-THGRGFI-OH; N-terminus and C-terminus assumed)
Pull-down of uPAR [1]: failed to pull down
Binding to immobilized PAI-1-uPA complex [2]: not to PAI-1 or the PAI-1-uPA complex
Pull-down of PAI-1 [3]: failed to pull down
Pull-down of integrin α5 ([4]; HUVEC lysates, 500 nM B-Vi45-51, 1 h, Dynabeads Streptavidin T1, Western blot, ∼145 kDa): Integrin α5 was precipitated
Effect of VEGF + bFGF on pull-down of integrin α5 ([4]; HUVECs, 500 nM B-Vi45-51, 20 ng mL^−1 bFGF, 25 ng mL^−1 VEGF, 1 h): did not affect binding
Binding to immobilized integrin α5β1 [5]: dose-dependent binding

N=C(N)NCCC[C@H](N)C(=O)NCC(=O)N[C@@H](CC(=O)O)C(=O)O [RGD, reference compound]
pIC50 ([6]; dose–response, fibronectin 1 μg cm^−2, 37 °C, MTT read-out, nonlinear regression (r^2 > 0.8), at least three independent experiments, read-out: IC50, inhibition of HUVEC adhesion to fibronectin): 7.21

Ac-PHSCN-NH2 [ATN-161, PHSRN-based peptide (Ac-PHSCN-NH2), reference compound]
Induction of apoptosis (anoikis) [7]: induce apoptosis through anoikis
Disruption of endothelial adhesion [8]: disrupt endothelial adhesion

H46A: alanine-scanning mutant peptide, alanine substitution at H46 (TAGRGFI)
Inhibition of B-Vi45-51 binding to integrin α5β1 [9]: abolished inhibition

HNLSSEM [HNLSSEM motif]
Apoptosis induction via uPAR-dependent mechanism [7]: induces endothelial apoptosis through a uPAR-dependent mechanism
Binding to PAI-1 (literature) [10]: mediates Vi binding to PAI-1

R48A: Vi45-51 mutated by alanine in R48 (THGAGFI)
Inhibition of B-Vi45-51 binding to integrin α5β1 [9]: abolished inhibition
HUVEC adhesion to fibronectin, dose–response ([6]; fibronectin 1 μg cm^−2, 37 °C): did not

THGR [HGR-containing tetrapeptide THGR]
Inhibition of Vi binding to integrin α5β1 [11]: blocked Vi–integrin interaction

THGRGFI [Vi45-51]
Effect of ITGA5 knockdown on inhibition of endothelial proliferation [12]: abolished the inhibitory effects
Effect of anti-α5β1 antibody on inhibition of VEGF + bFGF-induced proliferation [12]: prevented the inhibitory effects
Effect of ITGA5 knockdown on inhibition of invasion [13]: abolished the inhibitory effects
Effect of anti-α5β1 antibody on inhibition of Matrigel plug vascularization [14]: prevented the inhibitory effects
Inhibition of B-Vi45-51 binding to integrin α5β1 [9]: inhibited B-Vi45-51 binding
Effect of ITGA5 silencing on inhibition of VEGF-induced permeability [15]: ablated the inhibitory effect
Effect of ITGA5 knockdown on inhibition of tube formation [16]: abolished the inhibitory effects
HUVEC adhesion to fibronectin at 1 μM ([6]; 1 μM, fibronectin 1 μg cm^−2, 37 °C, Fig. 4C): enhanced fibronectin-mediated adhesion
pEC50 [6]: 8.34
HUVEC adhesion to fibronectin, dose–response ([6]; fibronectin 1 μg cm^−2, 37 °C): increased the adhesion in a dose-dependent manner

cilengitide [reference compound]
Induction of apoptosis (anoikis) [7]: induce apoptosis through anoikis
Disruption of endothelial adhesion [8]: disrupt endothelial adhesion

vasoinhibin [Vi]
Effect of ITGA5 knockdown on inhibition of endothelial proliferation [12]: abolished the inhibitory effects
Effect of anti-α5β1 antibody on inhibition of VEGF + bFGF-induced proliferation [12]: prevented the inhibitory effects
Effect of ITGA5 knockdown on inhibition of invasion [13]: abolished the inhibitory effects
Effect of anti-α5β1 antibody on inhibition of Matrigel plug vascularization [14]: prevented the inhibitory effects
pKd ([2]; immobilized PAI-1-uPA complex, at least three independent experiments): 6.39
Binding to immobilized PAI-1-uPA complex [2]: bound all three
Effect of ITGA5 silencing on inhibition of VEGF-induced permeability [15]: ablated the inhibitory effect
Effect of ITGA5 knockdown on Vi-induced apoptosis [17]: did not abolish Vi-induced apoptosis; in fact, it was even slightly increased; also recorded: did not prevent, but slightly enhanced
Antiangiogenic and antitumor effects in PAI-1 knockout mice [18]: lost in PAI-1 knockout mice
Effect of antibodies against integrin α5β1 on Vi-induced endothelial cell apoptosis [7]: partially prevented
Effect of ITGA5 knockdown on inhibition of tube formation [16]: abolished the inhibitory effects
Binding to immobilized integrin α5β1 [5]: bound all three
pKd ([19]; immobilized PAI-1, at least three independent experiments): 6.28
Binding to immobilized PAI-1 ([19]; plates coated with 2 μg mL^−1): bound all three
